Here are results for 16 compounds from patent US5328909A, “Cyclopropenone derivatives” (Mitsubishi Kasei Corporation, priority 1991, dated 1994).

The target of one series is T1, papain (Carica papaya, UniProt P00784).
T1 sequence (P00784 134-345): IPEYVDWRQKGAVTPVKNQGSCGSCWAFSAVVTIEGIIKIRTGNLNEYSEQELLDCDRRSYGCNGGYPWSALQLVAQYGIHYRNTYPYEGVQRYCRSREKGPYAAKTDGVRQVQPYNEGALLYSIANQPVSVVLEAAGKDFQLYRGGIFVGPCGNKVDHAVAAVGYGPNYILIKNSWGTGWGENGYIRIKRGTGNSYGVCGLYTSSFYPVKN
Description: Thiol protease inhibitory activity against papain (P-3125, Sigma). The class given is biochemical. On the procedure:
(§1) Inhibitory activity against papain (P-3125, Sigma) and cathepsin B (C-6286, Sigma) was assayed according to the method described in a literature [Biochemical Journal, 201, 189 (1982)]. Capthesin L was purified from rat kidney according to the method in a literature [Journal of Biochemistry, 100, 35 (1986)], and the inhibitory activity against it was assayed in the same manner as described in the above literature for cathepsin B. Further, m-calpain was purified from rat brain according to a known method [Journal of Biological Chemistry, 254, p.3210 (1984)] and the inhibitory activity against it was assayed by a method described in a literature [Journal of Biological Chemistry, 259, 12489 (1984)]. The results are showing in Tables 3 and 4. It is evident from Tables 3 and 4 that the compounds in the present invention have a potent inhibitory activity against thiol proteases such as papain, cathepsin B, cathepsin L, m-calpain or the like.

The target of the next series is T2, cathepsin B (Bos taurus, UniProt P07688).
T2 construct: purchased Sigma C-6286
Description: Thiol protease inhibitory activity against cathepsin B (C-6286, Sigma). It counts as biochemical. The procedure:
as §1

For a further series, the target named is T3, cathepsin L (Rattus norvegicus, UniProt P07154).
T3 construct: Capthesin L was purified from rat kidney; from tissue; host or cells: rat kidney
T3 sequence (P07154 114-288 limits assumed): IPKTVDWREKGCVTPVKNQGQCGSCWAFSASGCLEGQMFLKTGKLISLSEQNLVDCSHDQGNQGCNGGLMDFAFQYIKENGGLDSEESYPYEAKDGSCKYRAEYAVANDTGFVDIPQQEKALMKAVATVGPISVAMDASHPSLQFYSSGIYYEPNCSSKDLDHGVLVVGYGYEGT
T3 sequence (P07154 291-334 limits assumed): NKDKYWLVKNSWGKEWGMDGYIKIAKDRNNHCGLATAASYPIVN
Description: Thiol protease inhibitory activity against cathepsin L purified from rat kidney. It counts as biochemical. The procedure:
as §1

The next series deals with T4, m-calpain (Rattus norvegicus, UniProt Q07009).
T4 construct: m-calpain was purified from rat brain; from tissue; host or cells: rat brain
T4 sequence (Q07009 20-700 limits assumed): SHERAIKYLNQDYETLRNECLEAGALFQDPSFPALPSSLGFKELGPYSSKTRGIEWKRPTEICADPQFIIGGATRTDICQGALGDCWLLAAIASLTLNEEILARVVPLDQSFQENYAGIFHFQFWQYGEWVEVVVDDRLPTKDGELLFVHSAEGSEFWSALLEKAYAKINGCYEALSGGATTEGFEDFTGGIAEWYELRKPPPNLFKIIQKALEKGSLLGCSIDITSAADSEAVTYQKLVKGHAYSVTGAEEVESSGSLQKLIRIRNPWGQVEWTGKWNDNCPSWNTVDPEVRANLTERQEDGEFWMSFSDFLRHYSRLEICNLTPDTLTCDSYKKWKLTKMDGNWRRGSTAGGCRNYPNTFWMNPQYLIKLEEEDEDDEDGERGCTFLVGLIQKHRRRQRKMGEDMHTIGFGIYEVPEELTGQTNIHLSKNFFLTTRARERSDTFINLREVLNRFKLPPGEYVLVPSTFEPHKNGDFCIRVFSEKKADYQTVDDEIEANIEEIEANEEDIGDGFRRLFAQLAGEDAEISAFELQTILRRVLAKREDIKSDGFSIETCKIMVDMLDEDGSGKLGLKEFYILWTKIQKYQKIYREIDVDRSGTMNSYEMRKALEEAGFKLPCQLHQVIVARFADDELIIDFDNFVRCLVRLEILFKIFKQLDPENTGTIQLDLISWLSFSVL
T4 sequence (Q64537 1-270 partner): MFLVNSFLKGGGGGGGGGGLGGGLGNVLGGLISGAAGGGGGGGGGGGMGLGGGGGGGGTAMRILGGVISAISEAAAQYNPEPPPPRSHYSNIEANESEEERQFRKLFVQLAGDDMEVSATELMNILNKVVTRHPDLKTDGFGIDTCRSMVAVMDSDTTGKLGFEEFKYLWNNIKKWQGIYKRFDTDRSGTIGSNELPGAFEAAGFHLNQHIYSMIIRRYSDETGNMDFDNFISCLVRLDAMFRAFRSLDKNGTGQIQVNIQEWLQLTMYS
The experiment in a line: Thiol protease inhibitory activity against m-calpain purified from rat brain. It counts as biochemical. A digest of the protocol:
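Papain and bovine cathepsin B assayed by a published method; cathepsin L purified from rat kidney and tested as for cathepsin B. m-Calpain purified from rat brain and assayed by a separate published method.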

Series [1] is described as follows: Acute oral toxicity, rats observed for 7 days. The settings on record: rat, in vivo, suspension in 0.5% CMC-Na aqueous solution, SD female and male rats, 7 days observation. On the procedure: The LD50 value of the compound (I) prepared in Example 1 is: >2,000 mg/kg.
Series [2] has as its system experimental muscular dystrophy hamster. The note with it: cited from earlier work.
Series [3] concerns aggregation of platelet caused by thrombin. The note with it: cited from earlier work.
The subject of another series is cataract animal models. The note with it: cited from earlier work.
Series [4] has as its system rat with enhanced bone destruction by administration of parathyroid hormone. The settings on record: cited from earlier work.
The next series has as its system production of IgE. The settings on record: cited from earlier work.
The mark [5] stands for this setting: Table 3, read-out: IC50 (μM) papain.
Where [6] appears, read: Table 3, read-out: IC50 (μM) cathepsin B.
[7] abbreviates: Table 3, rat kidney enzyme, read-out: IC50 (μM) cathepsin L.
Setting [8] is: Table 3, rat brain enzyme, read-out: IC50 (μM) m-calpain.

SMILES strings stand for the structures. Where two headings read alike, the source gives them in different places.

Regarding `CC(C)C[C@H](NC(=O)OCC1CCCCC1)C(=O)N[C@@H](C(C)C)[C@@H](O)c1c(-c2ccccc2)c1=O` [1 (No. 77), 2-[(1S,2S)-2-{(s)-2-cyclohexylmethoxycarbonylamino-4-methylvalerylamino}-1-hydroxy-3-methylbuthyl]-3-phenylcyclopropenone], the IC50 on papain (setting [5]) amounted to 0.054 µM; on cathepsin B (setting [6]) it was 0.71 µM; at cathepsin L (setting [7]), 0.00086 µM; on m-calpain (setting [8]), 1.6 µM. In series [1], the LD50 at 168 h was greater than 2000 mg/kg.

Consider `CC(C)C[C@H](NC(=O)OCC1CCCCC1)C(=O)N[C@@H](C(C)C)[C@H](O)c1c(-c2ccccc2)c1=O` [2 (No. 77), 2-[(1R, 2S)-2-{(S)-2-cyclohexylmethoxycarbonylamino-4-methylvalerylamino}-1-hydroxy-3-methylbutyl]-3-phenylcyclopropenone], for which the IC50 is 22 µM at papain (setting [5]), 0.044 µM at cathepsin B (setting [6]), 0.0012 µM on cathepsin L (setting [7]) and 3.3 µM on m-calpain (setting [8]).

Turning to `CC(C)C[C@H](NC(=O)OCC1CCCCC1)C(=O)N[C@@H](C(C)C)C(O)c1cc1=O` (stereo partly drawn) [4 (No. 4), 2-[(2S)-2-((S)-2-cyclohexylmethoxycarbonylamino-4-methylvalerylamino)-1-hydroxy-3-methylbutyl]cyclopropenone], the results for the IC50 on papain (setting [5]), at cathepsin B (setting [6]) and at m-calpain (setting [8]) were 5.8 µM, 0.41 µM and 0.5 µM, respectively.

In the case of `CC(C)C[C@H](NC(=O)OCc1ccccc1)C(=O)N[C@@H](CC(C)C)C(O)c1cc1=O` (stereo partly drawn) [5 (No. 10), 2-[(2S)-2-((S)-2-benzyloxycarbonylamino-4-methylvalerylamino)-1-hydroxy-4-methylpentyl]cyclopropenone], the IC50 is greater than 100 µM on papain (setting [5]), 3 µM at cathepsin B (setting [6]), 0.75 µM at cathepsin L (setting [7]) and 2.3 µM on m-calpain (setting [8]).

Take `CCCC[C@H](NC(=O)[C@H](CC(C)C)NC(=O)OCC1CCCCC1)C(O)c1cc1=O` (stereo partly drawn) [6 (No. 15), 2-[(2S)-2-((S)-2-cyclohexylmethoxycarbonylamino-4-methylvalerylamino)-1-hydroxyhexyl]cyclopropenone]: the IC50 at papain (setting [5]) worked out at 0.076 µM; at cathepsin B (setting [6]), 0.16 µM; at cathepsin L (setting [7]), 0.54 µM; on m-calpain (setting [8]), 0.81 µM.

For `CCCC[C@H](NC(=O)[C@H](CC(C)C)NC(=O)OCc1ccccc1)C(O)c1cc1=O` (stereo partly drawn) [7 (No. 16), 2-[(2S)-2-((S)-2-benzyloxycarbonylamino-4-methylvalerylamino)-1-hydroxyhexyl]cyclopropenone], the IC50 on papain (setting [5]) stood at 0.14 µM; at cathepsin B (setting [6]), 0.32 µM; on cathepsin L (setting [7]) it was 0.24 µM; at m-calpain (setting [8]) it was 2.4 µM.

With `CC(C)C[C@H](NC(=O)OCc1ccccc1)C(=O)N[C@@H](C(C)C)[C@@H](O)c1c(-c2ccccc2)c1=O` [25 (No. 83), 2-[(1S, 2S)-2-((S)-2-benzyloxycarbonylamino-4-methylvalerylamino)-1-hydroxy-3-methylbutyl]-3-phenylcyclopropenone], the IC50 is 13 µM at papain (setting [5]), 32 µM at cathepsin B (setting [6]), 5.7 µM at cathepsin L (setting [7]) and 2.1 µM on m-calpain (setting [8]).

`CC(C)C[C@H](NC(=O)OCc1ccccc1)C(=O)N[C@@H](C(C)C)C(O)c1c(-c2ccccc2)c1=O` (stereo partly drawn) [26 (No. 83), 2-[(2S)-2-((S)-2-benzyloxycarbonylamino-4-methylvalerylamino)-1-hydroxy-3-methylbutyl]-3-phenylcyclopropenone]: the IC50 amounted to 4.2 µM on papain (setting [5]), 43 µM on cathepsin B (setting [6]), 5.8 µM on cathepsin L (setting [7]) and 1.6 µM at m-calpain (setting [8]).

For the compound `CCCC[C@H](NC(=O)[C@H](CC(C)C)NC(=O)OCC1CCCCC1)C(O)c1c(-c2ccccc2)c1=O` (stereo partly drawn) [94 (No. 280), 2-[(2S)-2-((S)-2-cyclohexylmethoxycarbonylamino-4-methylvalerylamino)-1-hydroxyhexyl]-3-phenylcyclopropenone], the IC50 at papain (setting [5]) turned out to be 0.074 µM; on cathepsin B (setting [6]) it was 1 µM; at cathepsin L (setting [7]), 0.062 µM; on m-calpain (setting [8]), 2.7 µM.

For `CCCC[C@H](NC(=O)[C@H](CC(C)C)NC(=O)OCc1ccccc1)C(O)c1c(-c2ccccc2)c1=O` (stereo partly drawn) [95 (No. 281), 2-[(2S)-2-((S)-2-benzyloxycarbonylamino-4-methylvalerylamino]-1-hydroxyhexyl]-3-phenylcyclopropenone], the IC50 worked out at 13 µM on papain (setting [5]), 11 µM at cathepsin B (setting [6]), 1.27 µM at cathepsin L (setting [7]) and 3 µM at m-calpain (setting [8]).

For `CCCC[C@H](NC(=O)[C@H](CC(C)C)NC(=O)OCc1ccccn1)C(O)c1c(-c2ccccc2)c1=O` (stereo partly shown) [96 (No. 282)], the IC50 against papain was 7 µM; at cathepsin B (setting [6]) it was 28 µM; on cathepsin L (setting [7]), 4.6 µM; at m-calpain (setting [8]) it was 5.7 µM.

For the compound `CCCC[C@H](NC(=O)[C@H](CC(C)C)NC(=O)OCC1CCCCC1)C(O)c1c(-c2ccc([Si](C)(C)C)o2)c1=O` (stereo partly drawn) [114 (No. 376), 2-[(2S)-2-((S)-2-cyclohexylmethoxycarbonylamino-4-methylvalerylamino)-1-hydroxy-1-hexyl]-3-(5-trimethylsilyl-2-furil)cyclopropenone], the IC50 on papain (setting [5]) is 0.68 µM; at cathepsin B, 2.5 µM; against cathepsin L it was 0.58 µM; against m-calpain, 5.6 µM.

`CCCC[C@H](NC(=O)[C@H](CC(C)C)NC(=O)OCC1CCCCC1)C(O)c1c(-c2ccc([Si](C)(C)C)s2)c1=O` (stereo partly drawn) [115 (No. 387), 2-[(2S)-2-((S)-2-cyclohexylmethoxycarbonylamino-4-methylvalerylamino)-1-hydroxy-1-hexyl]-3-(5-trimethylsilyl-2-thienyl)cyclopropenone]: the IC50 on papain (setting [5]) turned out to be 0.48 µM; on cathepsin B, 1.5 µM; against cathepsin L, 0.27 µM; at m-calpain, 11 µM.

As to `CCOC(=O)[C@H]1O[C@@H]1C(=O)N[C@@H](CC(C)C)C(=O)NCCC(C)C` [E-64-d], the life-prolonging effect entry in series [2] was “life-prolonging effect”. Moreover, in series [3], the aggregation of platelet result was “suppressed aggregation of platelet”.

Consider `CC(C)C[C@H](NC(=O)[C@H]1O[C@@H]1C(=O)O)C(=O)NCCCCNC(=N)N` [E-64], for which the effect on cataract result in the series on cataract animal models was “effective on cataract”. Also, in series [4], the “calcium concentration in blood” value was “decrease” and the “hydroxyproline concentration in blood” value was “decrease”.

Turning to `NC(N)=NCCCCNC(=O)[C@H](Cc1ccccc1)NC(=O)[C@H]1O[C@@H]1C(=O)O` [Estatin A], in the series on production of IgE, the “production of IgE” value is “specifically inhibit the production of IgE” and the “production of IgG” value is on record as “without affecting on the production of IgG”. Besides, in [4], the “calcium concentration in blood” value was “decrease” and the “hydroxyproline concentration in blood” value is “decrease”.
